Measured values published in US7282513B2, “Heteroaryl substituted spirocyclic sulfamides for inhibition of gamma secretase” (Merck Sharp & Dohme Limited, priority 2002, dated 2007).

- melting point: 185 °C
Structure (SMILES): Cn1nc(-c2ccc(F)cc2)cc1-c1ccc2c(c1)C[C@H]1CC[C@@H](C2)[C@]12CN(CC(F)(F)F)S(=O)(=O)N2 (single isomer, unassigned) [Example 15]
